Values of other authors as cited in patent US20230287038A1, “PURIFIED SAPONINS AND CHROMATOGRAPHIC PROCESS FOR PURIFICATION OF SAME” (ACCESS TO ADVANCED HEALTH INSTITUTE, priority 2020, published 2023).

Columns and labels:
[1] = system: antigens bovine serum albumin and cytochrome b5; conditions: mice
[2] = reversed-phase chromatography fractions of saponin extract
[3] = aqueous solution
[4] = system: unconjugated bacterial polysaccharides; conditions: including unconjugated bacterial polysaccharides

What does the source list for QS-17?
antibody response to bovine serum albumin and cytochrome b5 [1]: stimulate potent antibody responses; adjuvant activity [2]: identified with adjuvant activity

What does the source list for QS-18?
antibody response to bovine serum albumin and cytochrome b5 [1]: stimulate potent antibody responses; adjuvant activity [2]: identified with adjuvant activity

What does the source list for QS-21?
pH at which hydrolysis of the fatty acyl ester bond (de-acylation) is minimized [3]: ~5.5; antibody response to T-independent antigens [4]: enhance antibody responses; antibody response to bovine serum albumin and cytochrome b5 [1]: stimulate potent antibody responses; adjuvant activity [2]: identified with adjuvant activity
